Test results taken from US7977366B2, “Treating an inflammatory disorder or inhibiting respiratory burst in adherent neutrophils with chemical inhibitors of neutrophil activation” (Cornell Research Foundation, Inc., priority 2003, dated 2011).
“Also recorded” adds a separate entry of the source. Like-named read-outs stand apart in the source and are kept apart here.

Key:
human neutrophils [1] = experiment: TNF-triggered H2O2 release (respiratory burst) by adherent human neutrophils; type: cell-based; conditions: for IC50: Homo sapiens, Neutrophil, TNF 100 ng/ml; for Concentration that consistently yielded over 95% inhibition on TNF triggered RB: empirically decided for each compound
Protocol: Contaminating erythrocytes were lysed by hypotonic shock for 45 seconds with 0.2% saline.
Briefly, 15,000 compounds were screened to identify specific inhibitors of TNF-triggered H2O2 release in human neutrophils. H2O2 release was measured as above except a few modifications to adapt to high throughput screening. […] Percent inhibition by each compound was calculated using the formula: […]
Briefly, 96-well flat-bottomed plates (Primaria, Falcon) were coated with 50 μl/well of FBS in 5% CO2 at 37° C. for at least 1 h and washed three times with 0.9% saline. Neutrophils (1.5×10^4) were added to triplicate wells containing 100 μl of reaction mixture (2.4 nm scopoletin, 0.5 μg horseradish peroxidase (HRP), and 1 mM NaN3) and stimulated with either buffer control, TNF (PreproTech, London, UK) or phorbol myristate acetate (PMA), each at 100 ng/ml. […] The supernatant from the H2O2 release assay with 1.5×10^4 neutrophils was used to measure degranulation using lactoferrin (LF) or myeloperoxidase (MPO) ELISA kit (Oxis International, Inc., Portland, Oreg.). Spontaneous cell death from the same supernatant was measured using Cytotoxicity Detection Kit (Roche Molecular Biochemicals, Nutley, N.J.). The total cell content of LF, MPO, and lactate dehydrogenase (LDH) was determined after lysing cells with 1% Triton X100. LDH is a cytosolic enzyme whose release indicates cell lysis, such that high release of LF or MPO in the face of low release of LDH is taken as a measure of degranulation.

Syk = experiment: TNF and adhesion triggered tyrosine phosphorylation of Syk in neutrophils (immunoprecipitation, western blot); type: cell-based, human; conditions: for TNF and adhesion triggered tyrosine phosphorylation (activation) of Syk: result in words; for inhibition of TNF and adhesion triggered tyrosine phosphorylation of Syk: moderately inhibited
Protocol: Tissue culture plates (Primaria, Falcon) were coated with 3 ml of FBS in 5% CO2 at 37° C. for at least 1 h and washed twice with 0.9% saline. Isolated human neutrophils (1.5×10^6) were added to each plate containing 4 ml of reaction mixture, incubated with each compound at 37° C. for 30 min, and stimulated with either buffer control or TNF (100 ng/ml). When cells were fully spread (20-40 min), they were treated with 5 mM diisopropylfluorophosphate to inhibit serine proteases and lysed with either 125 μl of SDS lysis buffer (10 mM Tris-HCl, pH 7.6, 150 mM NaCl, 1% SDS, 1 mM PMSF, 1 mM Na pyrophosphate, 1 mM NaF, 1 mM vanadate, 5 μg/ml each of aprotinin, leupeptin, chymostatin, pepstatin A) for western blot, or with 200 μl of non-denaturing modified RIPA buffer (10 mM Tris-HCl, pH 7.6, 150 mM NaCl, 1% Triton-X100, 1 mM PMSF, 1 mM Na pyrophosphate, 1 mM NaF, 1 mM vanadate, 5 μg/ml each of aprotinin, leupeptin, chymostatin, pepstatin A) for immunoprecipitation. The cell lysate was passed through a 26-gauge needle six times to shear DNA and centrifuged at 20,000×g for 15 min to remove cell debris and DNA. The protein concentration was determined using a Bio-Rad (Indianapolis, Ind.) kit. Cell lysates were separated by SDS-PAGE and transferred electrophoretically to nitrocellulose membranes (Schleicher & Schuell, Inc., Keene, N.H.). The membranes were incubated with 5% milk in TBST ([…], 0.1% Tween-20) for 1 h at 37° C. and then overnight at 4° C. with anti-phosphotyrosine antibody (Santa Cruz), anti-Syk antibody (Transduction Laboratories, Newington, N.H.), anti-phospho-specific Pyk2 antibodies (Biosource International, Camarillo, Calif.), or anti-Pyk2 antibody (Upstate Biotech, Waltham, Mass.). Membranes were washed with TBST and incubated with secondary Ab conjugated with HRP in 5% milk in TBST for 1 h at 37° C. After further washing with TBST, bound antibody was detected by enhanced chemiluminescence (Pierce ECL, Amersham Pharmacia, Piscataway, N.J.).
Also investigated was the impact of the compounds of the present invention on several known tyrosine kinases such as Src, Syk, and Pyk2, which are shown to be critical in the signaling pathways triggered by TNF. Kinase assays were performed according to the instructions provided by United Bioinformatica, Inc. ((UBI) Calgary, AB, Canada), from which recombinant Src and Syk were purchased. Briefly, after incubation of recombinant Src (40 U) (UBI, Calgary, AB, Canada) with each compound at RT for 30 min, Src kinase reaction buffer (100 mM Tris-HCl, pH 7.2, 125 mM MgCl2, 25 mM MnCl2, 2 mM EGTA, 0.25 mM NaOV4, 2 mM DTT), Src kinase substrate peptide (375 μM, UBI, Calgary, AB, Canada), and [γ-32P]ATP were added to the enzyme. After incubation at 30° C. for 10 min, the reaction was stopped by addition of 40% trichloroacetic acid (TCA). Samples were transferred to a P81 paper square (UBI, Calgary, AB, Canada), the unincorporated radioactivity was washed off with 0.75% phosphoric acid and acetone, and the assay square was placed in a scintillation counter. For Syk kinase assay, reaction buffer contained 50 mM Tris-HCl, pH 7.5, 0.1 mM EGTA, 0.1 mM NaOV4, 0.15 M 2-mercaptoethanol and substrate was poly (Glu-4-Tyr)(4:1) (CSI Biointernational, France). […] It appears that these compounds block—partially by Comp I and II and completely by Comp III and IV—upstream signaling events for Syk activation rather than directly blocking Syk activity.

human neutrophils [2] = experiment: Neutrophil spreading on FBS-coated glass coverslips (phase-contrast microscopy); type: cell-based; conditions: TNF 100 ng/ml
Protocol: Glass coverslips were placed in 12 well tissue culture plate and coated with FBS in 5% CO2 at 37° C. for at least 1 h and washed three times with 0.9% saline. Neutrophils (2×10^6) were added to each well containing a FBS-coated glass coverslip and 1 ml of reaction mixture and incubated or not with each compound at 37° C. for 30 min before stimulation with TNF (100 ng/ml), PMA (100 ng/ml) or an equal volume of KRPG. Cells were fixed with 2% paraformaldehyde and 3.7% formaldehyde buffer, and photographed with phase-contrast microscope.
To determine whether any of these compounds are implicated in cytoskeletal rearrangement, neutrophils were treated with a compound of the present invention or DMSO and then activated with PMA or TNF. Human neutrophils, isolated as described herein above were plated on FBS-coated glass coverslips and incubated or not with a compound of the present invention at 37° C. for 30 min, followed by stimulation with TNF (100 ng/ml), PMA (100 ng/ml) or an equal volume of KRPG, fixed, and photographed with phase-contrast microscope. Neutrophils adhere and fully spread when activated. However, cells exposed to TNF after incubation with Comp I-IV were arrested in spreading. These compounds seem to block different stages of cell spreading. […] They display almost round and close to non-stimulated cell morphology to quite advanced, yet arrested phenotype before full spreading. […] None of the compounds impeded cell spreading induced by PMA.

[3] = 1.5 h, H2O2 release at 90 min, read-out: IC50, TNF triggered H2O2 release

Structure (SMILES) | IC50 (human neutrophils [1]; range given with mixed units nM and μM, read-out: IC50, TNF triggered H2O2 release (very variable)) [nM] | Concentration that consistently yielded over 95% inhibition on TNF triggered RB (human neutrophils [1]) [µM] | TNF and adhesion triggered tyrosine phosphorylation (activation) of Syk (Syk) | cell spreading triggered by TNF (human neutrophils [2]) | IC50 (human neutrophils [1]; [3]) [nM] | effect on TNF triggered H2O2 release (respiratory burst) (human neutrophils [1]; result in words) | inhibition of TNF and adhesion triggered tyrosine phosphorylation of Syk (Syk)
O=C(CSc1nc2ccccc2s1)N/N=C/c1cc([N+](=O)[O-])ccc1O [Comp IV, (Benzothiazol-2-ylsulfanyl)-acetic acid (2-hydroxy-5-nitro-benzylidene) -hydrazide] | 3 to 2000 | 10 | completely inhibited | arrested after flattening and extending several filopodia | – | – | –
O=C1CC(c2ccccc2)=NN1c1cccc(Cl)c1 [Comp II, 2-(3-Chloro-phenyl)-5-phenyl-2,4-dihydro-pyrazol-3-one] | – | 5 | did not block | arrested after flattening and extending several filopodia; also recorded: inhibited | 1600 ± 400 | inhibited | about 50%
Cc1nc(N/N=C/c2ccccc2O)c2c3c(sc2n1)CCCC3 [Comp I, 2-[(2-Methyl-5,6,7,8-tetrahydro-benzo[4,5]thieno [2,3-a]pyrimidin-4-yl)-hydrazonomethyl]-phenol] | – | 2 | – | very heterogeneous morphology | ~180 | – | about 50%
C(=N\Nc1ncnc2sc3c(c12)CCCC3)/c1cccnc1 [Comp III, N-Pyridin-3-ylmethylene-N-(5,6,7,8-tetrahydro-benzo[4,5] [2,3-a]pyrimidin-4-yl)-hydrazine] | – | 5 | completely inhibited | after extending a few pseudopodia; also recorded: block cell spreading at the earliest stage | 2500 ± 1500 | – | –
